# Where two headings read alike, the source gives them in different places.
# Assays:
# HCV 1a genotype replicon = assay: HCV replicon assay (qRT-PCR or luciferase), genotype 1a; format: cell-based; settings: Hepatitis C virus
# Experimental: HCV replicon cell lines (kindly provided by R. Bartenschlager) isolated from colonies as described by Lohman et. al. (Lohman et al. (1999) Science 285: 110-113, expressly incorporated by reference in its entirety) and used for all experiments. The HCV replicon has the nucleic acid sequence set forth in EMBL Accession No.: AJ242651, the coding sequence of which is from nucleotides 1801 to 8406.
# These cell lines were maintained at 37° C., 5% CO2, 100% relative humidity in DMEM (Cat#11965-084, Invitrogen), with 10% fetal calf serum (“FCS”, Invitrogen), 1% non-essential amino acids (Invitrogen), 1% of Glutamax (Invitrogen), 1% of 100× penicillin/streptomycin (Cat#15140-122, Invitrogen) and Geneticin (Cat#10131-027, Invitrogen) at 0.75 mg/ml or 0.5 mg/ml for 11-7 and Huh-luc/neo-ET cells, respectively.
# EC50 values of single agent compounds and combinations were determined by HCV RNA detection using quantitative RT-PCR, according to the manufacturer's instructions, with a TAQMAN® One-Step RT-PCR Master Mix Reagents Kit (Cat#AB 4309169, Applied Biosystems) on an ABI Model 7500 thermocycler. The TaqMan primers used for detecting and quantifying HCV RNA were obtained from Integrated DNA Technologies. HCV RNA was normalized to GAPDH RNA levels in drug-treated cells, which is detected and quantified using the Human GAPDH Endogenous Control Mix (Applied Biosystems, AB 4310884E). Total cellular RNA is purified from 96-well plates using the RNAqueous 96 kit (Ambion, Cat# AM1812). Chemical agent cytotoxicity is evaluated using an MTS assay according to the manufacturer's directions (Promega).
# Since clinical drug resistance often develops in viral infections following single agent therapies, there is a need to assess the additive, antagonistic, or synergistic properties of combination therapies. We used the HCV replicon system to assess the potential use of the compound of the present invention or in combination therapies with Interferon alpha, cyclosporine analogs and inhibitors targeting other HCV proteins. The acute effects of a single or combinations of drugs are studied in the “Huh-luc/neo-ET” replicon with each chemical agent titrated in an X or Y direction in a 6 point two-fold dilution curve centered around the EC50 of each drug. Briefly, replicon cells are seeded at 7,000 cells per well in 90 ul DMEM (without phenol red, Invitrogen Cat.#31053-036) per well with 10% FCS, 1% non-essential amino acids, 1% of Glutamax and 1% of 100× penicillin/streptomycin and incubated overnight at 37° C., 5% CO2, 100% relative humidity. 16-20 h after seeding cells, test compounds previously solubilized and titrated in dimethyl sulfoxide (“DMSO”) from each X plate and Y plate are diluted 1:100 in DMEM (without phenol red, Invitrogen Cat.#31053-036) with 10% FCS, 1% non-essential amino acids, 1% of Glutamax and 1% of 100× penicillin/streptomycin and added directly to the 96-well plate containing cells and growth medium at a 1:10 dilution for a final dilution of compound and DMSO of 1:1000 ([…] final concentration). Drug treated cells are incubated at 37° C., 5% CO2, 100% relative humidity for 72 hours before performing a luciferase assay using 100 ul per well BriteLite Plus (Perkin Elmer) according to the manufacturer's instructions. Data analysis utilizes the method published by Prichard and Shipman (Antiviral Research, 1990. 14:181-205). Using this method, the combination data are analyzed for antagonistic, additive, or synergistic combination effects across the entire combination surface created by the diluted compounds in combination.
# The compounds of the present invention can be effective against the HCV 1b genotype. It should also be understood that the compounds of the present invention can inhibit multiple genotypes of HCV. In one embodiment compound of the present invention are active against the 1a, 1b, 2a, 2b, 3a, 4a, and 5a genotypes. […] EC50 ranges against HCV 1b and 1a are as follows: A>10 nM; B1-10 nM; C<1 nM.
# HCV 1b genotype replicon = assay: HCV replicon assay (qRT-PCR or luciferase), genotype 1b; format: cell-based; settings: Hepatitis C virus
# How it was run: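 Genotype 1b subgenomic replicon Huh-luc/neo-ET cells (7,000/well) treated with compound for 72 h at 37 °C, 0.2% DMSO final; replication read by firefly luciferase. EC50 alternatively from qRT-PCR of HCV RNA normalized to GAPDH; cytotoxicity by MTS.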
# [1] = Table 12, range class, read-out: 1a EC50 Range
# [2] = Table 12, numeric values, read-out: 1b EC50
# [3] = Table 12, range class, read-out: 1b EC50 Range
# [4] = Table 12, numeric values, read-out: 1a EC50
Structure (SMILES),EC50 (HCV 1a genotype replicon; [1]),also measured
COC(=O)N[C@@H](CCCNC(N)=O)C(=O)N1CC2(CC2)C[C@H]1c1nc(-c2ccc(C#Cc3ccc4[nH]c([C@@H]5CC6(CC6)CN5C(=O)[C@@H](NC(=O)OC)C(C)C)nc4c3)cc2)c[nH]1 [Example 616],< 1 nM,EC50 (HCV 1b genotype replicon; [2]): 0.495 nM
COC(=O)N[C@H](C(=O)N1CC2(CC2)C[C@H]1c1nc2ccc(C#Cc3ccc(-c4cnc([C@@H]5CC6(CC6)CN5C(=O)[C@H](NC(=O)OC)c5ccccc5)[nH]4)cc3)cc2[nH]1)C(C)C (stereo in doubt) [Example 647],< 1 nM,EC50 (HCV 1b genotype replicon; [2]): 0.008 nM
COC(=O)N[C@H](C(=O)N1CC2(CC2)C[C@H]1c1nc2cc(C#Cc3ccc(-c4c[nH]c([C@@H]5CCCN5C(=O)[C@H](NC(=O)OC)c5ccccc5)n4)cc3)ccc2[nH]1)C(C)C [Example 579],< 1 nM,EC50 (HCV 1b genotype replicon; [3]): < 1 nM
COC(=O)N[C@@H](C(=O)N1CC2(CC2)C[C@H]1c1ncc(-c2ccc(C#Cc3ccc4nc([C@@H]5CC6(CC6)CN5C(=O)[C@H](NC(=O)OC)c5ccccc5)[nH]c4c3)cc2)[nH]1)c1ccccc1 [Example 645],< 1 nM,EC50 (HCV 1b genotype replicon; [2]): 0.005 nM
COC(=O)N[C@@H](COC(N)=O)C(=O)N1CCC[C@H]1c1ncc(-c2ccc(C#Cc3ccc4nc([C@@H]5CC6(CC6)CN5C(=O)[C@@H](NC(=O)OC)C(C)C)[nH]c4c3)cc2)[nH]1 [Example 552],< 1 nM,EC50 (HCV 1b genotype replicon; [3]): < 1 nM
COC(=O)N[C@H](C(=O)N1CC2(CC2)C[C@H]1c1nc(-c2ccc(-c3ccc4[nH]c([C@@H]5CC6(CC6)CN5C(=O)[C@@H](NC(=O)OC)C(C)C)nc4c3)cc2)c[nH]1)C(C)C [Example 640],1 to 10 nM,EC50 (HCV 1b genotype replicon; [2]): 0.03 nM
COC(=O)N[C@H](C(=O)N1CC2(CC2)C[C@H]1c1nc(-c2ccc(C#Cc3ccc4[nH]c([C@@H]5C[C@@]6(CCOC6)CN5C(=O)[C@@H](NC(=O)OC)C(C)C)nc4c3)cc2)c[nH]1)C(C)C [Example 631],< 1 nM,EC50 (HCV 1b genotype replicon; [2]): 0.008 nM
COC(=O)N[C@H](C(=O)N1CC2(CC2)C[C@H]1c1ncc(-c2ccc(C#Cc3ccc4nc([C@@H]5CC6(CC6)CN5C(=O)[C@@H](NC(=O)OC)C5CCOCC5)[nH]c4c3)cc2)[nH]1)C1CCOCC1 [Example 583],< 1 nM,EC50 (HCV 1b genotype replicon; [3]): < 1 nM
COC(=O)N[C@H](C(=O)N1CCC[C@H]1c1ncc(-c2ccc(C#Cc3ccc4nc([C@@H]5C[C@H](C6CC6)CN5C(=O)[C@@H](NC(=O)OC)C(C)C)[nH]c4c3)cc2)[nH]1)C(C)C [Example 641],< 1 nM,EC50 (HCV 1b genotype replicon; [2]): 0.007 nM
COC(=O)N[C@H](C(=O)N1CC2(CC2)C[C@H]1c1ncc(-c2ccc(C#Cc3ccc4nc([C@@H]5CC6(CC6)CN5C(=O)[C@@H](NC(=O)OC)C5CCCC5)[nH]c4c3)cc2)[nH]1)C(C)C [Example 679],< 1 nM,–
COC(=O)N[C@H](C(=O)N1C[C@H](CF)C[C@H]1c1ncc(-c2ccc(C#Cc3ccc4nc([C@@H]5C[C@@]6(CCCO6)CN5C(=O)[C@@H](NC(=O)OC)C(C)C)[nH]c4c3)cc2)[nH]1)C(C)C [Example 634],< 1 nM,–
COC(=O)N[C@H](C(=O)N1CC2(CC2)C[C@H]1c1nc2ccc(C#Cc3ccc(-c4cnc([C@@H]5CCCN5C(=O)[C@H](NC(=O)OC)c5cc(F)cc(F)c5)[nH]4)cc3)cc2[nH]1)C(C)C (stereo in doubt) [Example 678],< 1 nM,–
COC(=O)N[C@@H](CNC(N)=O)C(=O)N1CCC[C@H]1c1ncc(-c2ccc(C#Cc3ccc4nc([C@@H]5CC6(CC6)CN5C(=O)[C@@H](NC(=O)OC)C(C)C)[nH]c4c3)cc2)[nH]1 [Example 550],1 to 10 nM,–
COC(=O)N[C@H](C(=O)N1CC2(CC2)C[C@H]1c1nc2ccc(C#Cc3ccc(-c4cnc([C@@H]5CCCN5C(=O)[C@H](NC(=O)OC)c5ccsc5)[nH]4)cc3)cc2[nH]1)C(C)C [Example 596],< 1 nM,–
COC(=O)N[C@H](C(=O)N1CC2(CC2)C[C@H]1c1ncc(-c2ccc(C#Cc3ccc4nc([C@@H]5CC6(CC6)CN5C(=O)[C@H](NC(=O)OC(C)(C)C)[C@H](C)c5ccccc5)[nH]c4c3)cc2)[nH]1)C(C)C [Example 669],> 10 nM,–
COC(=O)N[C@H](C(=O)N1CC2(CC2)C[C@H]1c1nc2ccc(C#Cc3ccc(-c4cnc([C@@H]5CCCN5C(=O)[C@H](NC(=O)OC)c5ccco5)[nH]4)cc3)cc2[nH]1)C(C)C [Example 682],< 1 nM,–
COC(=O)N[C@H](C(=O)N1CC2(CC2)C[C@H]1c1ncc(-c2ccc(C#Cc3ccc4nc([C@@H]5CC6(CC6)CN5C(=O)[C@H](NC(=O)OC)[C@H](C)c5ccccc5)[nH]c4c3)cc2)[nH]1)C(C)C [Example 601],> 10 nM,–
COC(=O)N[C@H](C(=O)N1CC2(CC2)C[C@H]1c1nc(-c2ccc(C#Cc3ccc4[nH]c([C@@H]5C[C@]6(CCCO6)CN5C(=O)[C@@H](NC(=O)OC)C(C)C)nc4c3)cc2)c[nH]1)C(C)C [Example 626],–,EC50 (HCV 1a genotype replicon; [4]): 1.34 nM
COC(=O)N[C@H](C(=O)N1CC2(CC2)C[C@H]1c1nc2ccc(C#Cc3ccc(-c4cnc([C@@H]5CCCN5C(=O)[C@H](NC(=O)OC)c5cccc(Cl)c5)[nH]4)cc3)cc2[nH]1)C(C)C [Example 665],< 1 nM,–
COC(=O)N[C@@H](C(=O)N1CC2(CC2)C[C@H]1c1ncc(-c2ccc(C#Cc3ccc4nc([C@@H]5CC6(CC6)CN5C(=O)[C@H](NC(=O)OC)c5ccc(Cl)cc5)[nH]c4c3)cc2)[nH]1)c1ccc(Cl)cc1 [Example 611],> 10 nM,–
COC(=O)N[C@H](C(=O)N1CC2(CC2)C[C@H]1c1ncc(-c2ccc(C#Cc3ccc4nc([C@@H]5CC6(CC6)CN5C(=O)[C@@H](NC(=O)OC)C5CCOCC5)[nH]c4c3)cc2)[nH]1)C(C)C [Example 590],–,EC50 (HCV 1a genotype replicon; [4]): 0.017 nM
COC(=O)N[C@H](C(=O)N1CC2(CC2)C[C@H]1c1nc(-c2cccnc2)c(-c2ccc(C#Cc3ccc4nc([C@@H]5CC6(CC6)CN5C(=O)[C@@H](NC(=O)OC)C(C)C)[nH]c4c3)cc2)[nH]1)C(C)C [Example 662],< 1 nM,–
CC[C@@H](C)[C@H](NC(=O)OC)C(=O)N1CC2(CC2)C[C@H]1c1nc2ccc(C#Cc3ccc(-c4cnc([C@@H]5CC6(CC6)CN5C(=O)[C@@H](NC(=O)OC)C(C)C)[nH]4)cc3)cc2[nH]1 [Example 656],< 1 nM,–
COC(=O)N[C@H](C(=O)N1CC2(CC2)C[C@H]1c1nc2ccc(C#Cc3ccc(-c4cnc([C@@H]5CCCN5C(=O)OC(C)(C)C)[nH]4)cc3)cc2[nH]1)C(C)C [Compound 666],> 10 nM,–
COC(=O)N[C@H](C(=O)N1CC2(CC2)C[C@H]1c1ncc(-c2ccc(C#Cc3ccc4nc([C@@H]5CC6(CC6)CN5C(=O)[C@H](NC(=O)OC)c5cccs5)[nH]c4c3)cc2)[nH]1)C(C)C [Example 582],< 1 nM,–
COC(=O)N[C@H](C(=O)N1CC2(CC2)C[C@H]1c1nc2ccc(C#Cc3ccc(-c4cnc([C@@H]5CCCN5C(=O)[C@@H](NC(=O)OC)[C@@H](C)c5ccccc5)[nH]4)cc3)cc2[nH]1)C(C)C (stereo in doubt) [Example 672],< 1 nM,–
COC(=O)N[C@H](C(=O)N1CC2(CC2)C[C@H]1c1ncc(-c2ccc(C#Cc3ccc4nc([C@@H]5CC6(CC6)CN5C(=O)[C@@H](NC(=O)OC)C5CCCCC5)[nH]c4c3)cc2)[nH]1)C(C)C [Example 675],< 1 nM,–

# — patent US9765087B2, “Benzimidazole derivatives” (ENANTA PHARMACEUTICALS, INC., priority 2009, dated 2017)
